We go through 15 compounds from patent US10538555B2, “Macrocyclic inhibitors of the PD-1/PD-L1 and CD80(B7-1)/PD-L1 protein/protein interactions” (BRISTOL-MYERS SQUIBB COMPANY, priority 2014, dated 2020).

The structures appear in SMILES notation. Where a SMILES comes first, the peptide text is derived from it. Bridges are numbered along the chain shown (N, C = ends). [ ]: non-standard residue; d: D form. ξ: configuration not given here. Bta = N[C@@H](Cc1csc2ccccc12)C(=O)O; Hyp = O=C(O)[C@@H]1C[C@@H](O)CN1; NMeNle = CCCC[C@H](NC)C(=O)O; d(hSer) = N[C@H](CCO)C(=O)O; hSer = N[C@@H](CCO)C(=O)O; NMeA = CN[C@@H](C)C(=O)O; ξC = NC(CS)C(=O)O

The target in this assay is T1, Human PD-L1/PD-1 (Homo sapiens, UniProt Q9NZQ7).
T1 construct: TVMV protease cleavage site (C); made in house; host or cells: HEK293T cells
The assay is described as follows: HTRF Human PD-L1/PD-1 binding assay (PD-1-Ig/PD-L1-His). As to conditions: PD-L1-His 10 nM, PD-1-Ig 20 nM; class symbol; read-out: HTRF Human PD-L1/PD-1 Binding Assay IC50 Range. The procedure, abridged:
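HTRF competition using HEK293T-expressed human PD-1(25-167)-Ig at 20 nM and PD-L1(18-239)-His at 10 nM, compound incubated first with PD-L1 for 15 min, then with PD-1 for 15 min. Signal read as 665/620 nm ratio 30 min after adding Eu anti-Ig and APC anti-His antibodies.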

T1 sequence (Q9NZQ7 with tags, fused parts or gaps): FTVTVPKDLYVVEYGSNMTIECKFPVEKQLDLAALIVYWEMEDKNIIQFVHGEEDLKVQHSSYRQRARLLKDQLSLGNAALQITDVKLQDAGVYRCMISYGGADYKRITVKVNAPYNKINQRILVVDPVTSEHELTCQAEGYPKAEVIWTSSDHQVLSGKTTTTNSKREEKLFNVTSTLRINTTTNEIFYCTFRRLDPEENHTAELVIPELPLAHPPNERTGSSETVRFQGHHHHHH

As for `CCCC[C@H]1C(=O)N(C)[C@@H](C)C(=O)N[C@@H](CCCNC(=N)N)C(=O)NC(C(=O)N[C@@H](CO)C(N)=O)CSCC(=O)N[C@@H](Cc2ccc(O)cc2)C(=O)N(C)[C@@H](C)C(=O)N[C@@H](CC(N)=O)C(=O)N2CCC[C@H]2C(=O)N[C@@H](CO)C(=O)N[C@H](CC(C)C)C(=O)N2C[C@H](O)C[C@H]2C(=O)N[C@@H](Cc2c[nH]c3ccccc23)C(=O)N[C@@H](CO)C(=O)N[C@@H](Cc2csc3ccccc23)C(=O)N1C` (stereo partly drawn) [Example 9124] ({CH2CO}-Y[NMeA]NPS[dL][Hyp]WS[Bta][NMeNle][NMeA]R[ξC]S-NH2; thioether N-14), the IC50 was 10 to 99.9 nM.

As to `CCCC[C@H]1C(=O)N(C)[C@@H](CCCC)C(=O)N[C@@H](CCCNC(=N)N)C(=O)NC(C(=O)NCC(N)=O)CSCC(=O)N[C@@H](Cc2ccc(O)cc2)C(=O)N(C)[C@@H](C)C(=O)N[C@@H](CC(N)=O)C(=O)N2CCC[C@H]2C(=O)N[C@@H](Cc2cnc[nH]2)C(=O)N[C@H](CCO)C(=O)N2C[C@H](O)C[C@H]2C(=O)N[C@@H](Cc2c[nH]c3ccccc23)C(=O)N[C@@H](CO)C(=O)N[C@@H](Cc2c[nH]c3ccccc23)C(=O)N1C` (stereo partly drawn) [Example 9125] ({CH2CO}-Y[NMeA]NPH[d(hSer)][Hyp]WSW[NMeNle][NMeNle]R[ξC]G-NH2; thioether N-14), the IC50 lay in the range of 10 to 99.9 nM. The value for `CCCC[C@H]1C(=O)N(C)[C@@H](CCCC)C(=O)N[C@@H](CCCNC(=N)N)C(=O)NC(C(=O)NCC(N)=O)CSCC(=O)N[C@@H](Cc2ccc(O)cc2)C(=O)N(C)[C@@H](C)C(=O)N[C@@H](CC(N)=O)C(=O)N2CCC[C@H]2C(=O)N[C@@H](Cc2cnc[nH]2)C(=O)N[C@@H](CCO)C(=O)N2CCC[C@H]2C(=O)N[C@@H](Cc2c[nH]c3ccccc23)C(=O)N[C@@H](CO)C(=O)N[C@@H](Cc2csc3ccccc23)C(=O)N1C` (stereo partly drawn) [Example 9126] ({CH2CO}-Y[NMeA]NPH[hSer]PWS[Bta][NMeNle][NMeNle]R[ξC]G-NH2; thioether N-14) was 1 to 9.9 nM; that for `CCCC[C@H]1C(=O)N(C)[C@@H](CCCC)C(=O)N[C@@H](CCCNC(=N)N)C(=O)NC(C(=O)NCC(N)=O)CSCC(=O)N[C@@H](Cc2ccc(O)cc2)C(=O)N(C)[C@@H](C)C(=O)N[C@@H](CC(N)=O)C(=O)N2CCC[C@H]2C(=O)N[C@@H](CCO)C(=O)N[C@@H](CC(C)C)C(=O)N2C[C@H](O)C[C@H]2C(=O)N[C@@H](Cc2c[nH]c3ccccc23)C(=O)N[C@@H](CO)C(=O)N[C@@H](Cc2c[nH]c3ccccc23)C(=O)N1C` (stereo partly drawn) [Example 9127] ({CH2CO}-Y[NMeA]NP[hSer]L[Hyp]WSW[NMeNle][NMeNle]R[ξC]G-NH2; thioether N-14) was 1 to 9.9 nM; that for `CCCC[C@H]1C(=O)N(C)[C@@H](CCCC)C(=O)N[C@@H](CCCNC(=N)N)C(=O)NC(C(=O)NCC(N)=O)CSCC(=O)N[C@@H](Cc2ccc(O)cc2)C(=O)N(C)[C@@H](C)C(=O)N[C@@H](CC(N)=O)C(=O)N2CCC[C@H]2C(=O)N[C@@H](CC(N)=O)C(=O)N[C@@H](CC(C)C)C(=O)N2CCC[C@H]2C(=O)N[C@@H](Cc2c[nH]c3ccccc23)C(=O)N[C@@H](CCO)C(=O)N[C@@H](Cc2c[nH]c3ccccc23)C(=O)N1C` (stereo partly drawn) [Example 9128] ({CH2CO}-Y[NMeA]NPNLPW[hSer]W[NMeNle][NMeNle]R[ξC]G-NH2; thioether N-14) was 1 to 9.9 nM. With `CCCC[C@H]1C(=O)N(C)[C@@H](CCCC)C(=O)N[C@@H](CCCNC(=N)N)C(=O)NC(C(=O)NCC(N)=O)CSCC(=O)N[C@@H](Cc2ccc(O)cc2)C(=O)N(C)[C@@H](C)C(=O)N[C@@H](CC(N)=O)C(=O)N2CCC[C@H]2C(=O)N[C@@H](CC(N)=O)C(=O)N[C@@H](CC(C)C)C(=O)N2CCC[C@H]2C(=O)N[C@@H](Cc2c[nH]c3ccccc23)C(=O)N[C@@H](CCO)C(=O)N[C@@H](Cc2csc3ccccc23)C(=O)N1C` (stereo partly drawn) [Example 9129] ({CH2CO}-Y[NMeA]NPNLPW[hSer][Bta][NMeNle][NMeNle]R[ξC]G-NH2; thioether N-14), the IC50 lay within 1 to 9.9 nM.

Regarding `CCCC[C@H]1C(=O)N(C)[C@@H](CCCC)C(=O)N[C@@H](CCCNC(=N)N)C(=O)NC(C(=O)NCC(N)=O)CSCC(=O)N[C@@H](Cc2ccc(O)cc2)C(=O)N(C)[C@@H](C)C(=O)N[C@@H](CC(N)=O)C(=O)N2CCC[C@H]2C(=O)N[C@@H](CC(N)=O)C(=O)N[C@@H](CC(C)C)C(=O)N2C[C@H](O)C[C@H]2C(=O)N[C@@H](Cc2c[nH]c3ccccc23)C(=O)N[C@@H](CCO)C(=O)N[C@@H](Cc2c[nH]c3ccccc23)C(=O)N1C` (stereo partly drawn) [Example 9130] ({CH2CO}-Y[NMeA]NPNL[Hyp]W[hSer]W[NMeNle][NMeNle]R[ξC]G-NH2; thioether N-14), the IC50 lay in the range of 1 to 9.9 nM. Then `CCCC[C@H]1C(=O)N(C)[C@@H](CCCC)C(=O)N[C@@H](CCCNC(=N)N)C(=O)NC(C(=O)NCC(N)=O)CSCC(=O)N[C@@H](Cc2ccc(O)cc2)C(=O)N(C)[C@@H](C)C(=O)N[C@@H](CC(N)=O)C(=O)N2CCC[C@H]2C(=O)N[C@@H](CC(N)=O)C(=O)N[C@@H](CC(C)C)C(=O)N2C[C@H](O)C[C@H]2C(=O)N[C@@H](Cc2c[nH]c3ccccc23)C(=O)N[C@@H](CCO)C(=O)N[C@@H](Cc2csc3ccccc23)C(=O)N1C` (stereo partly drawn) [Example 9131] ({CH2CO}-Y[NMeA]NPNL[Hyp]W[hSer][Bta][NMeNle][NMeNle]R[ξC]G-NH2; thioether N-14), with 1 to 9.9 nM; and `CCCC[C@H]1C(=O)N(C)[C@@H](CCCC)C(=O)N[C@@H](C)C(=O)NC(C(=O)NCC(N)=O)CSCC(=O)N[C@@H](Cc2ccc(O)cc2)C(=O)N(C)[C@@H](C)C(=O)N[C@@H](CC(N)=O)C(=O)N2CCC[C@H]2C(=O)N[C@@H](CC(N)=O)C(=O)N[C@@H](CC(C)C)C(=O)N2CCC[C@H]2C(=O)N[C@@H](Cc2c[nH]c3ccccc23)C(=O)N[C@@H](CO)C(=O)N[C@@H](Cc2c[nH]c3ccccc23)C(=O)N1C` (stereo partly drawn) [Example 9132] ({CH2CO}-Y[NMeA]NPNLPWSW[NMeNle][NMeNle]A[ξC]G-NH2; thioether N-14), with 10 to 99.9 nM; and `CCCC[C@H]1C(=O)N(C)[C@@H](CCCC)C(=O)N[C@@H](C)C(=O)NC(C(=O)NCC(N)=O)CSCC(=O)N[C@@H](Cc2ccc(O)cc2)C(=O)N(C)[C@@H](C)C(=O)N[C@@H](CC(N)=O)C(=O)N2CCC[C@H]2C(=O)N[C@@H](CC(N)=O)C(=O)N[C@@H](CC(C)C)C(=O)N2CCC[C@H]2C(=O)N[C@@H](Cc2c[nH]c3ccccc23)C(=O)N[C@@H](CO)C(=O)N[C@@H](Cc2csc3ccccc23)C(=O)N1C` (stereo partly drawn) [Example 9133] ({CH2CO}-Y[NMeA]NPNLPWS[Bta][NMeNle][NMeNle]A[ξC]G-NH2; thioether N-14), with 1 to 9.9 nM. With `CCCC[C@H]1C(=O)N(C)[C@@H](CCCC)C(=O)N[C@@H](C)C(=O)NC(C(=O)NCC(N)=O)CSCC(=O)N[C@@H](Cc2ccc(O)cc2)C(=O)N(C)[C@@H](C)C(=O)N[C@@H](CC(N)=O)C(=O)N2CCC[C@H]2C(=O)N[C@@H](CC(N)=O)C(=O)N[C@@H](CC(C)C)C(=O)N2C[C@H](O)C[C@H]2C(=O)N[C@@H](Cc2c[nH]c3ccccc23)C(=O)N[C@@H](CO)C(=O)N[C@@H](Cc2c[nH]c3ccccc23)C(=O)N1C` (stereo partly drawn) [Example 9134], the IC50 lay in the range of 1 to 9.9 nM. Then `CCCC[C@H]1C(=O)N(C)[C@@H](CCCC)C(=O)N[C@@H](C)C(=O)NC(C(=O)NCC(N)=O)CSCC(=O)N[C@@H](Cc2ccc(O)cc2)C(=O)N(C)[C@@H](C)C(=O)N[C@@H](CC(N)=O)C(=O)N2CCC[C@H]2C(=O)N[C@@H](CC(N)=O)C(=O)N[C@@H](CC(C)C)C(=O)N2C[C@H](O)C[C@H]2C(=O)N[C@@H](Cc2c[nH]c3ccccc23)C(=O)N[C@@H](CO)C(=O)N[C@@H](Cc2csc3ccccc23)C(=O)N1C` (stereo partly drawn) [Example 9135] ({CH2CO}-Y[NMeA]NPNL[Hyp]WS[Bta][NMeNle][NMeNle]A[ξC]G-NH2; thioether N-14), with 1 to 9.9 nM. With `CCCC[C@H]1C(=O)N(C)[C@@H](C)C(=O)N[C@@H](CCCNC(=N)N)C(=O)NC(C(=O)NCC(N)=O)CSCC(=O)N[C@@H](Cc2ccc(O)cc2)C(=O)N(C)[C@@H](C)C(=O)N[C@@H](CC(N)=O)C(=O)N2CCC[C@H]2C(=O)N[C@@H](CC(N)=O)C(=O)N[C@@H](CC(C)C)C(=O)N2CCC[C@H]2C(=O)N[C@@H](Cc2c[nH]c3ccccc23)C(=O)N[C@@H](CO)C(=O)N[C@@H](Cc2c[nH]c3ccccc23)C(=O)N1C` (stereo partly drawn) [Example 9136] ({CH2CO}-Y[NMeA]NPNLPWSW[NMeNle][NMeA]R[ξC]G-NH2; thioether N-14), the IC50 fell in the range of 10 to 99.9 nM. `CCCC[C@H]1C(=O)N(C)[C@@H](C)C(=O)N[C@@H](CCCNC(=N)N)C(=O)NC(C(=O)NCC(N)=O)CSCC(=O)N[C@@H](Cc2ccc(O)cc2)C(=O)N(C)[C@@H](C)C(=O)N[C@@H](CC(N)=O)C(=O)N2CCC[C@H]2C(=O)N[C@@H](CC(N)=O)C(=O)N[C@@H](CC(C)C)C(=O)N2CCC[C@H]2C(=O)N[C@@H](Cc2c[nH]c3ccccc23)C(=O)N[C@@H](CO)C(=O)N[C@@H](Cc2csc3ccccc23)C(=O)N1C` (stereo partly drawn) [Example 9137] ({CH2CO}-Y[NMeA]NPNLPWS[Bta][NMeNle][NMeA]R[ξC]G-NH2; thioether N-14): the IC50 lay within 1 to 9.9 nM. Consider `CCCC[C@H]1C(=O)N(C)[C@@H](C)C(=O)N[C@@H](CCCNC(=N)N)C(=O)NC(C(=O)NCC(N)=O)CSCC(=O)N[C@@H](Cc2ccc(O)cc2)C(=O)N(C)[C@@H](C)C(=O)N[C@@H](CC(N)=O)C(=O)N2CCC[C@H]2C(=O)N[C@@H](CC(N)=O)C(=O)N[C@@H](CC(C)C)C(=O)N2C[C@H](O)C[C@H]2C(=O)N[C@@H](Cc2c[nH]c3ccccc23)C(=O)N[C@@H](CO)C(=O)N[C@@H](Cc2c[nH]c3ccccc23)C(=O)N1C` (stereo partly drawn) [Example 9138] ({CH2CO}-Y[NMeA]NPNL[Hyp]WSW[NMeNle][NMeA]R[ξC]G-NH2; thioether N-14), for which the IC50 is 1 to 9.9 nM.
